From ChEMBL document CHEMBL4033791, “Creation of a Novel Class of Potent and Selective MutT Homologue 1 (MTH1) Inhibitors Using Fragment-Based Screening and Structure-Based Drug Design” (J Med Chem, 2018)
Converted amounts (≈) assume the structure as drawn. The source made the active and inactive calls. The calls are words filed in the database; no cut-off is given here.

How the values were obtained:
[1] = Solubility of the compound in buffer
[2] = target: Oxidized purine nucleoside triphosphate hydrolase (Homo sapiens) (UniProt P36639)
[3] = (§1) Intrinsic clearance in mouse liver microsomes at […] preincubated for 5 mins followed by NADPH addition measured by LC-MS/MS analysis; format: ADME, microsome; conditions: liver microsomes, read-out: CLH
[4] = Drug metabolism in mouse liver microsomes at […] preincubated for 5 mins followed by NADPH addition measured after 30 mins by LC-MS/MS analysis; format: ADME, microsome; conditions: read-out: Drug metabolism
[5] = Apparent permeability across apical to basolateral side in human Caco2 cells at 10 uM after 60 mins by LC-MS/MS analysis; conditions: Caco-2
[6] = Apparent permeability across basolateral to apical side in human Caco2 cells at 10 uM after 60 mins by LC-MS/MS analysis; conditions: Caco-2
[7] = Efflux ratio of permeability in human Caco2 cells at 10 uM after 60 mins by LC-MS/MS analysis; conditions: Caco-2
[8] = Apparent permeability across apical to basolateral side in human Caco2 cells at 2 uM after 2 hrs by LC-MS/MS analysis; format: ADME, cell-based; conditions: Caco-2
[9] = Apparent permeability across basolateral to apical side in human Caco2 cells at 2 uM after 2 hrs by LC-MS/MS analysis; format: ADME, cell-based; conditions: Caco-2
[10] = Efflux ratio of apparent permeability in human Caco2 cells at 2 uM after 2 hrs by LC-MS/MS analysis; conditions: Caco-2
Liver = experiment: as §1; format: ADME, microsome; conditions: microsomes, 1000 µM
[11] = target: Oxidized purine nucleoside triphosphate hydrolase (Homo sapiens) (UniProt P36639); experiment: Inhibition of human full length MTH1 at 20 uM using 8-Oxo-2-dGTP as substrate preincubated for 15 mins followed substrate addition measured after 1 hr by PPilight pyrophosphate-detection based assay

solubility [1] | microsomal CLint at 1000 µM [3] | metabolised at 0.5 h [4] | Papp A→B at 1 h, 10 µM [5] | Papp B→A at 1 h, 10 µM [6] | efflux ratio at 1 h, 10 µM [7] | SMILES | other results
250 µM (≈ 74.9 µg/mL) | – | – | – | – | – | CCNC(=O)c1cc2c(-c3cccc(Cl)c3)ccnc2[nH]1 | –
2000 µM (≈ 390 µg/mL) | – | – | – | – | – | c1cncc(-c2ccnc3[nH]ccc23)c1 | ΔTm [2]: 8.2 °C
250 µM (≈ 59.1 µg/mL) | – | – | – | – | – | c1cnc2c(c1)CCN2c1ccnc2[nH]ccc12 | –
500 µM (≈ 117 µg/mL) | – | – | – | – | – | c1cc(-c2cnc3[nH]ccc3c2)c2cc[nH]c2n1 | ΔTm [2]: 7.9 °C
10 µM (≈ 2.59 µg/mL) | – | – | – | – | – | OCc1cc2c(-c3cccc(Cl)c3)ccnc2[nH]1 | –
50 µM (≈ 14.8 µg/mL) | – | – | – | – | – | Clc1cccc(-c2ccnc3[nH]c(-c4cnco4)cc23)c1 | –
250 µM (≈ 65.8 µg/mL) | 244 µL/min/mg | 97% | 69 ×10⁻⁶ cm/s | 46 ×10⁻⁶ cm/s | 0.7 | c1ccc(C2CCCN2c2ccnc3[nH]ccc23)cc1 (centres undefined) | –
100 µM (≈ 27.2 µg/mL) | – | – | – | – | – | NC(=O)c1cc2c(-c3cccc(Cl)c3)ccnc2[nH]1 | –
500 µM (≈ 157 µg/mL) | 45 µL/min/mg | 48% | – | – | – | CCNC(=O)c1cc2c(N3CCOCC3C3CC3)ccnc2[nH]1 (centres undefined) | Papp A→B at 2 h, 2 µM [8]: 24 ×10⁻⁶ cm/s; Papp B→A at 2 h, 2 µM [9]: 79 ×10⁻⁶ cm/s; efflux ratio at 2 h, 2 µM [10]: 3.3
2000 µM (≈ 380 µg/mL) | – | – | – | – | – | CCOC(=O)c1ccnc2[nH]ccc12 | –
1000 µM (≈ 252 µg/mL) | – | – | – | – | – | CNC(=O)c1cc2c(-c3cccnc3)ccnc2[nH]1 | ΔTm [2]: 14.4 °C
100 µM (≈ 33.4 µg/mL) | 130 µL/min/mg | 85% | 41 ×10⁻⁶ cm/s | 63 ×10⁻⁶ cm/s | 1.6 | CCNC(=O)c1cc2c(N3CCCC3c3ccccc3)ccnc2[nH]1 (centres undefined) | –
– | 24 µL/min/mg | 29% | – | – | – | O=C(NC1COC1)c1cc2c(N3CCCC3c3cccnc3)ccnc2[nH]1 (centres undefined) | –
500 µM (≈ 144 µg/mL) | 36 µL/min/mg | 43% | – | – | – | CCNC(=O)c1cc2c(N3CCOC[C@@H]3C)ccnc2[nH]1 | Papp A→B at 2 h, 2 µM [8]: 148 ×10⁻⁶ cm/s; Papp B→A at 2 h, 2 µM [9]: 209 ×10⁻⁶ cm/s; ΔTm [2]: 21 °C
250 µM (≈ 62.8 µg/mL) | – | 100% | 39 ×10⁻⁶ cm/s | 35 ×10⁻⁶ cm/s | 0.9 | c1ccc2c(c1)OCCN2c1ccnc2[nH]ccc12 | microsomal intrinsic clearance (Liver): Unstable
250 µM (≈ 74.9 µg/mL) | – | – | – | – | – | CN(C)C(=O)c1cc2c(-c3cccc(Cl)c3)ccnc2[nH]1 | –
250 µM (≈ 57.2 µg/mL) | – | – | – | – | – | Clc1cccc(-c2ccnc3[nH]ccc23)c1 | –

solubility [1] | microsomal CLint at 1000 µM [3] | metabolised at 0.5 h [4] | Papp A→B at 1 h, 10 µM [5] | Papp B→A at 1 h, 10 µM [6] | efflux ratio at 1 h, 10 µM [7] | SMILES | other results
500 µM (≈ 168 µg/mL) | 48 µL/min/mg | 53% | 15 ×10⁻⁶ cm/s | 72 ×10⁻⁶ cm/s | 4.7 | CCNC(=O)c1cc2c(N3CCCC3c3ccccn3)ccnc2[nH]1 (centres undefined) | –
250 µM (≈ 71.4 µg/mL) | – | – | – | – | – | CNC(=O)c1cc2c(-c3cccc(Cl)c3)ccnc2[nH]1 | –
500 µM (≈ 168 µg/mL) | 49 µL/min/mg | 52% | 4 ×10⁻⁶ cm/s | 31 ×10⁻⁶ cm/s | 8.3 | CCNC(=O)c1cc2c(N3CCCC3c3cccnc3)ccnc2[nH]1 (centres undefined) | –
50 µM (≈ 12.1 µg/mL) | – | – | – | – | – | Cc1cc2c(-c3cccc(Cl)c3)ccnc2[nH]1 | –
250 µM (≈ 87.6 µg/mL) | 156 µL/min/mg | 90% | – | – | – | CCNC(=O)c1cc2c(N3CCOCC3c3ccccc3)ccnc2[nH]1 (centres undefined) | Papp A→B at 2 h, 2 µM [8]: 63 ×10⁻⁶ cm/s; Papp B→A at 2 h, 2 µM [9]: 89 ×10⁻⁶ cm/s; efflux ratio at 2 h, 2 µM [10]: 1.4
250 µM (≈ 63.4 µg/mL) | – | – | – | – | – | N#Cc1cc2c(-c3cccc(Cl)c3)ccnc2[nH]1 | –
250 µM (≈ 86.9 µg/mL) | 44 µL/min/mg | 50% | 13 ×10⁻⁶ cm/s | 76 ×10⁻⁶ cm/s | 5.7 | O=C(NC1CC1)c1cc2c(N3CCCC3c3ccccn3)ccnc2[nH]1 (centres undefined) | –
250 µM (≈ 69.8 µg/mL) | – | – | – | – | – | c1ccc(C2CN(c3ccnc4[nH]ccc34)CCO2)cc1 (centres undefined) | –
10 µM (≈ 2.49 µg/mL) | – | – | – | – | – | c1ccc2c(c1)CCN(c1ccnc3[nH]ccc13)C2 | –
1000 µM (≈ 280 µg/mL) | 232 µL/min/mg | 97% | 88 ×10⁻⁶ cm/s | 73 ×10⁻⁶ cm/s | 0.8 | c1ccc(C2COCCN2c2ccnc3[nH]ncc23)cc1 (centres undefined) | –
1000 µM (≈ 260 µg/mL) | 153 µL/min/mg | 92% | 75 ×10⁻⁶ cm/s | 66 ×10⁻⁶ cm/s | 0.9 | COC(C)(C)C1CCCN1c1ccnc2[nH]ncc12 (centres undefined) | –
1000 µM (≈ 330 µg/mL) | 54 µL/min/mg | 56% | – | – | – | CCNC(=O)c1cc2c(N3CCCC3C(C)(C)OC)ccnc2[nH]1 (centres undefined) | Papp A→B at 2 h, 2 µM [8]: 170 ×10⁻⁶ cm/s; Papp B→A at 2 h, 2 µM [9]: 225 ×10⁻⁶ cm/s; efflux ratio at 2 h, 2 µM [10]: 1.3
100 µM (≈ 31.2 µg/mL) | 115 µL/min/mg | 83% | 18 ×10⁻⁶ cm/s | 18 ×10⁻⁶ cm/s | 1 | O=C(NC1CC1)c1cc2c(-c3cccc(Cl)c3)ccnc2[nH]1 | –
250 µM (≈ 66.1 µg/mL) | 222 µL/min/mg | 99% | 74 ×10⁻⁶ cm/s | 63 ×10⁻⁶ cm/s | 0.8 | c1ccc(C2CCCN2c2ccnc3[nH]ncc23)cc1 (centres undefined) | –
– | – | – | – | – | – | CCNC(=O)c1cc2c(N3CCOC[C@@H]3C)ccnc2n1C | inhibition [11]: inactive
100 µM (≈ 23 µg/mL) | – | – | – | – | – | Clc1cccc(-c2ccnc3[nH]ncc23)c1 | –
250 µM (≈ 90.9 µg/mL) | 25 µL/min/mg | 33% | 7 ×10⁻⁶ cm/s | 46 ×10⁻⁶ cm/s | 6.7 | O=C(NC1COC1)c1cc2c(N3CCCC3c3ccccn3)ccnc2[nH]1 (centres undefined) | –

SMILES | solubility [1] | microsomal CLint at 1000 µM [3] | metabolised at 0.5 h [4] | Papp A→B at 1 h, 10 µM [5] | Papp B→A at 1 h, 10 µM [6] | efflux ratio at 1 h, 10 µM [7] | other results
c1cncc(C2CCCN2c2ccnc3[nH]ncc23)c1 (centres undefined) | 1000 µM (≈ 265 µg/mL) | 45 µL/min/mg | 54% | 44 ×10⁻⁶ cm/s | 50 ×10⁻⁶ cm/s | 1.1 | –
